The values that follow come from patent publication US20260022143A1, “Cyclic Peptide Inhibitors of IL-23” (JANSSEN PHARMACEUTICA NV, priority 2022, published 2026).

Starred links: 1 amine or outer side, 2 acyl side, 3 side chain; linkers in the order of their positions; H or OH if unused. Positions of bridges follow the written chain, without caps; N, C: chain ends. Non-standard residues stand in square brackets, D forms with d. Residues, ends and D or L forms follow the SMILES beside them. Groups on a side chain read outwards from the residue. *: point of attachment. X80 = COCC[N+](C)(C)CCCCc1cn(-c2ccc(C[C@H](N[*:1])C(=O)[*:2])cc2)nn1; X51 = C[N+](C)(C)CCCc1cn(-c2ccc(C[C@H](N[*:1])C(=O)[*:2])cc2)nn1; Me3N+(CH2)2O(CH2)2O(CH2)2CO = C[N+](C)(C)CCOCCOCCC(=O)*; Trp(7-Me) = Cc1cccc2c(C[C@H](N)C(=O)O)c[nH]c12; γGlu = O=C(O)[C@H](CCC(=O)[*:2])N[*:1]; 2Nal = N[C@@H](Cc1ccc2ccccc2c1)C(=O)O; 3Pal = N[C@@H](Cc1cccnc1)C(=O)O; Myristoyl = CCCCCCCCCCCCCC(=O)*; Lys(Me) = CNCCCC[C@H](N)C(=O)O; Chg = N[C@H](C(=O)O)C1CCCCC1; NMeK = CN[C@@H](CCCCN)C(=O)O; Pen = CC(C)(S)[C@H](N)C(=O)O; Lauroyl = CCCCCCCCCCCC(=O)*; Thp = NC1(C(=O)O)CCOCC1; X3 = C[N+](C)(C)CCCCC*; AEEA = NCCOCCOCC(=O)O; Sar = CNCC(=O)O

The nature of the data set: Exposed Polar Surface Area (EPSA). To be noted: SFC on Chirex 3014 column; sample 1 mM DMSO stock; read-out: EPSA. Type of data set: physicochemical. The gist of the method:
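Polarity measured by SFC on a Chirex 3014 column (35 °C, 4 mL/min) with methanol/ammonium formate in CO2 as gradient eluent. Retention times were normalised to EPSA (Å^2) against eight reference compounds.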
In the case of `CC(=O)N(C)CCCC[C@@H]1NC(=O)[C@H](Cc2c[nH]c3c(C)cccc23)NC(=O)[C@H]([C@@H](C)O)NC(=O)[C@H](CC(=O)N(C)C)NC(=O)[C@@H](NC(=O)CCOCCOCC[N+](C)(C)C)C(C)(C)SSC(C)(C)[C@@H](C(=O)N[C@@H](Cc2ccc(-n3cc(CCC[N+](C)(C)C)nn3)cc2)C(=O)N[C@@H](Cc2ccc3ccccc3c2)C(=O)NC2(C(=O)N[C@@H](CCCCN(C)C(C)=O)C(=O)N[C@@H](CC(N)=O)C(=O)N[C@@H](Cc3cccnc3)C(=O)N(C)CC(=O)N(C)C)CCOCC2)NC1=O` [compound 334, cPEG3aCO-Pen(3)-N(N(Me)2)-T-7MeW-K(NMeAc)-Pen(3)-F(4TzlTMA3)-2Nal-THP-K(NMeAc)-N-3Pya-Sar-CON(Me)2] ({Me3N+(CH2)2O(CH2)2O(CH2)2CO}-[Pen]D(NMe2)T[Trp(7-Me)][Lys(Me)](Ac)[Pen][X51][2Nal][Thp][Lys(Me)](Ac)N[3Pal][Sar]-NMe2; disulfide 1-6 (inferred)), the EPSA was 155 A^2.

As to `COCC[N+](C)(C)CCCCc1cn(-c2ccc(C[C@H](NC(=O)[C@H]3NC(=O)[C@H](CCCCN(C)C(C)=O)NC(=O)[C@H](Cc4c[nH]c5c(C)cccc45)NC(=O)[C@H]([C@@H](C)O)NC(=O)[C@H](CC(=O)N(C)C)NC(=O)[C@@H](NC(=O)CCOCCOCC[N+](C)(C)C)C(C)(C)SSC3(C)C)C(=O)N[C@@H](Cc3ccc4ccccc4c3)C(=O)NC3(C(=O)N[C@@H](CCCCN(C)C(C)=O)C(=O)N[C@@H](CC(N)=O)C(=O)N[C@@H](Cc4cccnc4)C(=O)N(C)CC(=O)N(C)C)CCOCC3)cc2)nn1` [compound 337, cPEG3aCO-Pen(3)-N(N(Me)2)-T-7MeW-K(NMeAc)-Pen(3)-F(4TzlDMA4mPEG)-2Nal-THP-K(NMeAc)-N-3Pya-Sar-CON(Me)2] ({Me3N+(CH2)2O(CH2)2O(CH2)2CO}-[Pen]D(NMe2)T[Trp(7-Me)][Lys(Me)](Ac)[Pen][X80][2Nal][Thp][Lys(Me)](Ac)N[3Pal][Sar]-NMe2; disulfide 1-6), the EPSA was determined as 152 A^2.

In the case of `CC(=O)N(C)CCCC[C@@H]1NC(=O)[C@H](Cc2c[nH]c3c(C)cccc23)NC(=O)[C@H]([C@@H](C)O)NC(=O)[C@H](CC(=O)N(C)C)NC(=O)[C@@H](NC(=O)CCOCCOCC[N+](C)(C)C)C(C)(C)SSC(C)(C)[C@@H](C(=O)N[C@@H](Cc2ccc(OCCCCC[N+](C)(C)C)cc2)C(=O)N[C@@H](Cc2ccc3ccccc3c2)C(=O)N[C@H](C(=O)N[C@@H](CCCCN(C)C(C)=O)C(=O)N[C@@H](CC(N)=O)C(=O)N[C@@H](Cc2cccnc2)C(=O)N(C)CC(=O)N(C)C)C2CCCCC2)NC1=O` [compound 340, cPEG3aCO-Pen(3)-N(N(Me)2)-T-7MeW-K(NMeAc)-Pen(3)-TMAPF-2Nal-Chg-K(NMeAc)-N-3Pya-Sar-CON(Me)2] ({Me3N+(CH2)2O(CH2)2O(CH2)2CO}-[Pen]D(NMe2)T[Trp(7-Me)][Lys(Me)](Ac)[Pen]Y(X3)[2Nal][Chg][Lys(Me)](Ac)N[3Pal][Sar]-NMe2; disulfide 1-6), the EPSA came out at 155 A^2.

As to `CC(=O)N[C@H](CCCNC(=N)N)C(=O)N[C@@H]1C(=O)N[C@@H](CC(=O)N(C)C)C(=O)N[C@@H]([C@@H](C)O)C(=O)N[C@@H](Cc2c[nH]c3c(C)cccc23)C(=O)N[C@@H](CCCCN(C)C(C)=O)C(=O)N[C@H](C(=O)N[C@@H](Cc2ccc(OCCCCC[N+](C)(C)C)cc2)C(=O)N[C@@H](Cc2ccc3ccccc3c2)C(=O)NC2(C(=O)N[C@@H](CCCCN(C)C(C)=O)C(=O)N[C@@H](CC(N)=O)C(=O)N[C@@H](Cc3cccnc3)C(=O)N(C)CC(=O)N(C)C)CCOCC2)C(C)(C)SSC1(C)C` [compound 345, MeCO-r-Pen(3)-N(N(Me)2)-T-7MeW-K(NMeAc)-Pen(3)-TMAPF-2Nal-THP-K(NMeAc)-N-3Pya-Sar-CON(Me)2] (Ac-[dR][Pen]D(NMe2)T[Trp(7-Me)][Lys(Me)](Ac)[Pen]Y(X3)[2Nal][Thp][Lys(Me)](Ac)N[3Pal][Sar]-NMe2; disulfide 2-7), the EPSA is 162 A^2.

Turning to `CCCCCCCCCCCCCC(=O)N[C@@H](CCC(=O)NCCOCCOCC(=O)NCCOCCOCC(=O)NCCCC[C@@H](NC(=O)CCOCCOCC[N+](C)(C)C)C(=O)N[C@@H]1C(=O)N[C@@H](CC(=O)N(C)C)C(=O)N[C@@H]([C@@H](C)O)C(=O)N[C@@H](Cc2c[nH]c3c(C)cccc23)C(=O)N[C@@H](CCCCNC(C)=O)C(=O)N[C@H](C(=O)N[C@@H](Cc2ccc(OCCCCC[N+](C)(C)C)cc2)C(=O)N[C@@H](Cc2ccc3ccccc3c2)C(=O)NC2(C(=O)N[C@@H](CCCCN(C)C(C)=O)C(=O)N[C@@H](CC(N)=O)C(=O)N[C@@H](Cc3cccnc3)C(=O)N(C)[C@@H](CCCCNC(=O)COCCOCCNC(=O)COCCOCCNC(=O)CC[C@H](NC(=O)CCCCCCCCCCCCC)C(=O)O)C(N)=O)CCOCC2)C(C)(C)SSC1(C)C)C(=O)O` [compound 347, cPEG3aCO-k(PEG2PEG2gEC14)-Pen(3)-N(N(Me)2)-T-7MeW-K(Ac)-Pen(3)-TMAPF-2Nal-THP-K(NMeac)-N-3Pya-NMeK(PEG2PEG2gEC14)-CONH2] ({Me3N+(CH2)2O(CH2)2O(CH2)2CO}-[dK]([AEEA-AEEA-γGlu-Myristoyl])[Pen]D(NMe2)T[Trp(7-Me)]K(Ac)[Pen]Y(X3)[2Nal][Thp][Lys(Me)](Ac)N[3Pal][NMeK]([AEEA-AEEA-γGlu-Myristoyl])-NH2; disulfide 2-7), the EPSA was 187 A^2.

In the case of `CCCCCCCCCCCC(=O)N[C@@H](CCC(=O)NCCOCCOCC(=O)NCCOCCOCC(=O)NCCCC[C@@H](NC(=O)CCOCCOCC[N+](C)(C)C)C(=O)N[C@@H]1C(=O)N[C@@H](CC(=O)N(C)C)C(=O)N[C@@H]([C@@H](C)O)C(=O)N[C@@H](Cc2c[nH]c3c(C)cccc23)C(=O)N[C@@H](CCCCNC(C)=O)C(=O)N[C@H](C(=O)N[C@@H](Cc2ccc(OCCCCC[N+](C)(C)C)cc2)C(=O)N[C@@H](Cc2ccc3ccccc3c2)C(=O)NC2(C(=O)N[C@@H](CCCCN(C)C(C)=O)C(=O)N[C@@H](CC(N)=O)C(=O)N[C@@H](Cc3cccnc3)C(=O)N(C)[C@@H](CCCCNC(=O)COCCOCCNC(=O)COCCOCCNC(=O)CC[C@H](NC(=O)CCCCCCCCCCC)C(=O)O)C(N)=O)CCOCC2)C(C)(C)SSC1(C)C)C(=O)O` [compound 348, cPEG3aCO-k(PEG2PEG2gEC12)-Pen(3)-N(N(Me)2)-T-7MeW-K(Ac)-Pen(3)-TMAPF-2Nal-THP-K(NMeac)-N-3Pya-NMeK(PEG2PEG2gEC12)-CONH2] ({Me3N+(CH2)2O(CH2)2O(CH2)2CO}-[dK]([AEEA-AEEA-γGlu-Lauroyl])[Pen]D(NMe2)T[Trp(7-Me)]K(Ac)[Pen]Y(X3)[2Nal][Thp][Lys(Me)](Ac)N[3Pal][NMeK]([AEEA-AEEA-γGlu-Lauroyl])-NH2; disulfide 2-7), the EPSA was found to be 184 A^2.

With `CCCCCCCCCCCCCC(=O)N[C@@H](CCC(=O)NCCOCCOCC(=O)NCCOCCOCC(=O)NCCCC[C@H](NC(=O)C1(NC(=O)[C@H](Cc2ccc3ccccc3c2)NC(=O)[C@H](Cc2ccc(OCCCCC[N+](C)(C)C)cc2)NC(=O)[C@H]2NC(=O)[C@H](CCCCNC(C)=O)NC(=O)[C@H](Cc3c[nH]c4c(C)cccc34)NC(=O)[C@H]([C@@H](C)O)NC(=O)[C@H](CC(=O)N(C)C)NC(=O)[C@@H](NC(=O)CCOCCOCC[N+](C)(C)C)C(C)(C)SSC2(C)C)CCOCC1)C(=O)N[C@@H](CC(N)=O)C(=O)N[C@@H](Cc1cccnc1)C(=O)N(C)[C@@H](CCCCNC(=O)COCCOCCNC(=O)COCCOCCNC(=O)CC[C@H](NC(=O)CCCCCCCCCCCCC)C(=O)O)C(N)=O)C(=O)O` [compound 351, cPEG3aCO-Pen(3)-N(N(Me)2)-T-7MeW-K(Ac)-Pen(3)-TMAPF-2Nal-THP-K(PEG2PEG2gEC14)-N-3Pya-NMeK(PEG2PEG2gEC14)-CONH2] ({Me3N+(CH2)2O(CH2)2O(CH2)2CO}-[Pen]D(NMe2)T[Trp(7-Me)]K(Ac)[Pen]Y(X3)[2Nal][Thp]K([AEEA-AEEA-γGlu-Myristoyl])N[3Pal][NMeK]([AEEA-AEEA-γGlu-Myristoyl])-NH2; disulfide 1-6), the EPSA came out at 184 A^2.

As for `CCCCCCCCCCCCCC(=O)N[C@@H](CCC(=O)NCCOCCOCC(=O)NCCOCCOCC(=O)NCCCC[C@@H]1NC(=O)[C@H](Cc2c[nH]c3c(C)cccc23)NC(=O)[C@H]([C@@H](C)O)NC(=O)[C@H](CC(=O)N(C)C)NC(=O)[C@@H](NC(=O)CCOCCOCC[N+](C)(C)C)C(C)(C)SSC(C)(C)[C@@H](C(=O)N[C@@H](Cc2ccc(OCCCCC[N+](C)(C)C)cc2)C(=O)N[C@@H](Cc2ccc3ccccc3c2)C(=O)NC2(C(=O)N[C@@H](CCCCN(C)C(C)=O)C(=O)N[C@@H](CC(N)=O)C(=O)N[C@@H](Cc3cccnc3)C(=O)N(C)[C@@H](CCCCNC(=O)COCCOCCNC(=O)COCCOCCNC(=O)CC[C@H](NC(=O)CCCCCCCCCCCCC)C(=O)O)C(N)=O)CCOCC2)NC1=O)C(=O)O` [compound 355, cPEG3aCO-Pen(3)-N(N(Me)2)-T-7MeW-K(PEG2PEG2gEC14)-Pen(3)-TMAPF-2Nal-THP-K(NMeac)-N-3Pya-NMeK(PEG2PEG2gEC14)-CONH2] ({Me3N+(CH2)2O(CH2)2O(CH2)2CO}-[Pen]D(NMe2)T[Trp(7-Me)]K([AEEA-AEEA-γGlu-Myristoyl])[Pen]Y(X3)[2Nal][Thp][Lys(Me)](Ac)N[3Pal][NMeK]([AEEA-AEEA-γGlu-Myristoyl])-NH2; disulfide 1-6), the EPSA was 186 A^2.

Consider `CCCCCCCCCCCCCC(=O)N[C@@H](CCC(=O)NCCOCCOCC(=O)NCCOCCOCC(=O)NCCCC[C@@H]1NC(=O)[C@@H](NC(=O)CCOCCOCC[N+](C)(C)C)C(C)(C)SSC(C)(C)[C@@H](C(=O)N[C@@H](Cc2ccc(OCCCCC[N+](C)(C)C)cc2)C(=O)N[C@@H](Cc2ccc3ccccc3c2)C(=O)NC2(C(=O)N[C@@H](CCCCN(C)C(C)=O)C(=O)N[C@@H](CC(N)=O)C(=O)N[C@@H](Cc3cccnc3)C(=O)N(C)[C@@H](CCCCNC(=O)COCCOCCNC(=O)COCCOCCNC(=O)CC[C@H](NC(=O)CCCCCCCCCCCCC)C(=O)O)C(N)=O)CCOCC2)NC(=O)[C@H](CCCCNC(C)=O)NC(=O)[C@H](Cc2c[nH]c3c(C)cccc23)NC(=O)[C@H]([C@@H](C)O)NC1=O)C(=O)O` [compound 357, cPEG3aCO-Pen(3)-K(PEG2PEG2gEC14)-T-7MeW-K(Ac)-Pen(3)-TMAPF-2Nal-THP-K(NMeac)-N-3Pya-NMeK(PEG2PEG2gEC14)-CONH2] ({Me3N+(CH2)2O(CH2)2O(CH2)2CO}-[Pen]K([AEEA-AEEA-γGlu-Myristoyl])T[Trp(7-Me)]K(Ac)[Pen]Y(X3)[2Nal][Thp][Lys(Me)](Ac)N[3Pal][NMeK]([AEEA-AEEA-γGlu-Myristoyl])-NH2; disulfide 1-6), for which the EPSA was 181 A^2.
